This test has as its system BDF1 mice, B16 melanoma ip, median survival T/C. Nature of the test: NCI In Vivo Anticancer Drug Screen. Data for tumor model B16 Melanoma (intraperitoneal) in B6D2F1 (BDF1) mice. The settings on record: endpoint: median survival time, higher = longer survival. Summed up: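 Read-out: survival or tumor size, given as treated/control ratio. Controls received vehicle only; animals bore transplantable tumors.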

The mark [1] stands for this setting: dose: 8.0 mg/kg/injection, schedule: Q01DX009 (ip), vehicle: saline with Tween-80.
The mark [2] stands for this setting: dose: 16.0 mg/kg/injection, schedule: Q01DX009 (ip), vehicle: saline with Tween-80.
[3] abbreviates: dose: 25.0 mg/kg/injection, schedule: Q01DX009 (ip), vehicle: saline with Tween-80.
Setting [4] is: dose: 25.0 mg/kg/injection, schedule: Q01DX009 (ip), vehicle: saline.
Where [5] appears, read: dose: 12.5 mg/kg/injection, schedule: Q01DX009 (ip), vehicle: saline.
[6] abbreviates: dose: 50.0 mg/kg/injection, schedule: Q01DX009 (ip), vehicle: saline.
Where [7] appears, read: dose: 100.0 mg/kg/injection, schedule: Q01DX009 (ip), vehicle: saline with Tween-80.
The mark [8] stands for this setting: dose: 200.0 mg/kg/injection, schedule: Q01DX009 (ip), vehicle: saline with Tween-80.
Setting [9] is: dose: 400.0 mg/kg/injection, schedule: Q01DX009 (ip), vehicle: saline with Tween-80.
Where [10] appears, read: dose: 12.5 mg/kg/injection, schedule: Q01DX009 (ip), vehicle: Klucel (hydroxypropylcellulose) (HPC).
Setting [11] is: dose: 25.0 mg/kg/injection, schedule: Q01DX009 (ip), vehicle: Klucel (hydroxypropylcellulose) (HPC).
The mark [12] stands for this setting: dose: 12.5 mg/kg/injection, schedule: Q01DX009 (ip), vehicle: saline with Tween-80.
The mark [13] stands for this setting: dose: 50.0 mg/kg/injection, schedule: Q01DX009 (ip), vehicle: saline with Tween-80.
The mark [14] stands for this setting: dose: 100.0 mg/kg/injection, schedule: Q01DX009 (ip), vehicle: Klucel (hydroxypropylcellulose) (HPC).
The mark [15] stands for this setting: dose: 200.0 mg/kg/injection, schedule: Q01DX009 (ip), vehicle: Klucel (hydroxypropylcellulose) (HPC).
Where [16] appears, read: dose: 400.0 mg/kg/injection, schedule: Q01DX009 (ip), vehicle: Klucel (hydroxypropylcellulose) (HPC).
Setting [17] is: dose: 3.12 mg/kg/injection, schedule: Q01DX009 (ip), vehicle: Klucel (hydroxypropylcellulose) (HPC).
[18] abbreviates: dose: 6.25 mg/kg/injection, schedule: Q01DX009 (ip), vehicle: Klucel (hydroxypropylcellulose) (HPC).
Setting [19] is: dose: 6.25 mg/kg/injection, schedule: Q01DX009 (ip), vehicle: saline with Tween-80.

Results on 18 molecules are retold here after PubChem BioAssay AID192 (DTP/NCI, 2004).

Where “and” joins values, the source holds several entries; their conditions need not be identical. Equal values may be shown once. Toxic doses and inconclusive results are not listed.

`CN(N=O)C(=O)Nc1c[nH]c(=O)[nH]c1=O`: the T/C runs as follows: (dose: 0.13 mg/kg/injection, schedule: Q01DX009 (ip), vehicle: saline with Tween-80) 113 % of control; (dose: 0.5 mg/kg/injection, schedule: Q01DX009 (ip), vehicle: saline with Tween-80) 105 % of control; (dose: 1.0 mg/kg/injection, schedule: Q01DX009 (ip), vehicle: saline with Tween-80) 105 % of control; (dose: 2.0 mg/kg/injection, schedule: Q01DX009 (ip), vehicle: saline with Tween-80) 115 % of control; under setting [1], 170 % of control; under setting [2], 182 % of control. For the same molecule, the T/C is, setting by setting: (dose: 16.5 mg/kg/injection, schedule: Q01DX009 (ip), vehicle: saline with Tween-80) 193 % of control; under setting [3], 200 % of control; under setting [4], 176 % of control; (dose: 37.5 mg/kg/injection, schedule: Q01DX009 (ip), vehicle: saline with Tween-80) 200 % of control.

In the case of `c1ccc(CN2CCOC2)cc1`, the T/C runs as follows: under setting [5], 115 % of control; under setting [4], 111 % of control; under setting [6], 122 % of control; (dose: 100.0 mg/kg/injection, schedule: Q01DX009 (ip), vehicle: saline) 111 % of control.

Consider `NC(=O)CN1C(=O)c2ccccc2C1=O`, for which the T/C reads like this: under setting [7], 97 % of control; under setting [8], 104 % of control; under setting [9], 97 % of control.

For the molecule `CCOC(=O)CN1CCC2CC1c1c([nH]c3ccccc13)C2c1cc2c(cc1OC)N(C)C1C(O)(C(=O)OC)C(OC(C)=O)C3(CC)C=CCN4CCC21C43` (stereo not drawn), the T/C runs as follows: (dose: 0.06 mg/kg/injection, schedule: Q01DX009 (ip), vehicle: other) 96 % of control; (dose: 0.13 mg/kg/injection, schedule: Q01DX009 (ip), vehicle: other) 108 % of control; (dose: 0.5 mg/kg/injection, schedule: Q01DX009 (ip), vehicle: other) 96 % of control; (dose: 1.0 mg/kg/injection, schedule: Q01DX009 (ip), vehicle: other) 104 % of control; (dose: 2.0 mg/kg/injection, schedule: Q01DX009 (ip), vehicle: other) 117 % of control.

For `CC1=C(/C=C/C(C)=C/C=C/C(C)=C/CO)C(C)(C)CCC1`, the T/C by setting is: (dose: 4.0 mg/kg/injection, schedule: Q01DX009 (ip), vehicle: saline with Tween-80) 90 % of control and 100 % of control; under setting [1], 99 % of control and 101 % of control; under setting [2], 97 % of control and 103 % of control; (dose: 32.0 mg/kg/injection, schedule: Q01DX009 (ip), vehicle: saline with Tween-80) 90 % of control and 105 % of control.

Consider `OCCN1CCN(CCCN2c3ccccc3C=Cc3ccccc32)CC1`, for which the T/C was 97 % of control (dose: 3.12 mg/kg/injection, schedule: Q01DX009 (ip), vehicle: saline); 105 % of control (dose: 3.12 mg/kg/injection, schedule: Q04DX003 (ip), vehicle: saline); 110 % of control (dose: 6.25 mg/kg/injection, schedule: Q01DX009 (ip), vehicle: saline); 100 % of control under setting [5]; 107 % of control (dose: 12.5 mg/kg/injection, schedule: Q04DX003 (ip), vehicle: saline); 95 % of control under setting [4]. Moreover, the T/C (dose: 25.0 mg/kg/injection, schedule: Q04DX003 (ip), vehicle: saline) was 122 % of control; the T/C under setting [6] is 95 % of control; the T/C (dose: 50.0 mg/kg/injection, schedule: Q04DX003 (ip), vehicle: saline) was 115 % of control.

Regarding `CCCCNC(C)(C)C(SSSC(c1ccc(Cl)cc1)C(C)(C)NCCCC)c1ccc(Cl)cc1` (stereo not drawn), the T/C runs as follows: under setting [10], 97 % of control; under setting [11], 89 % of control.

Take `Cn1nnnc1N/N=C/c1ccccc1`: the T/C is 93 % of control under setting [7], 95 % of control under setting [8] and 90 % of control under setting [9].

Take `Cc1ccccc1Oc1ccccc1N`: the T/C was 88 % of control (dose: 50.0 mg/kg/injection, schedule: Q01DX009 (sc), vehicle: olive oil, sesame oil, peanut oil); 90 % of control (dose: 100.0 mg/kg/injection, schedule: Q01DX009 (sc), vehicle: olive oil, sesame oil, peanut oil); 97 % of control (dose: 200.0 mg/kg/injection, schedule: Q01DX009 (sc), vehicle: olive oil, sesame oil, peanut oil); 90 % of control (dose: 400.0 mg/kg/injection, schedule: Q01DX009 (sc), vehicle: olive oil, sesame oil, peanut oil).

`c1ccc(CCN2CCC(CCc3c[nH]c4ccccc34)CC2)cc1`: the T/C reads like this: under setting [12], 90 % of control; under setting [3], 103 % of control; under setting [13], 94 % of control.

As to `CC(=O)Nc1cc2c(cc1[N+](=O)[O-])-c1ccccc1C2O` (stereo not drawn), the T/C (dose: 50.0 mg/kg/injection, schedule: Q04DX003 (ip), vehicle: saline with Tween-80) was 105 % of control; the T/C (dose: 100.0 mg/kg/injection, schedule: Q04DX003 (ip), vehicle: saline with Tween-80) was 110 % of control; the T/C (dose: 200.0 mg/kg/injection, schedule: Q04DX003 (ip), vehicle: saline with Tween-80) is 105 % of control.

With `CC(=O)N(C(C)=O)C1=C(c2ccccc2)C(=O)c2ccccc21`, the T/C under setting [14] is 100 % of control, the T/C under setting [15] was 97 % of control and the T/C under setting [16] is 97 % of control.

Regarding `CCC1OCC(C(Cl)CCl)O1` (stereo not drawn), the T/C is, setting by setting: under setting [10], 90 % of control and 97 % of control; under setting [11], 88 % of control and 109 % of control; (dose: 50.0 mg/kg/injection, schedule: Q01DX009 (ip), vehicle: Klucel (hydroxypropylcellulose) (HPC)) 86 % of control and 97 % of control; under setting [14], 94 % of control and 105 % of control; under setting [15], 89 % of control and 117 % of control; under setting [16], 105 % of control.

On to `Cc1nc2ccccc2nc1CBr`, for which the T/C runs as follows: (dose: 0.4 mg/kg/injection, schedule: Q01DX009 (ip), vehicle: saline with Tween-80) 104 % of control; (dose: 0.8 mg/kg/injection, schedule: Q01DX009 (ip), vehicle: saline with Tween-80) 104 % of control; (dose: 0.8 mg/kg/injection, schedule: Q01DX009 (ip), vehicle: saline) 95 % of control; (dose: 1.6 mg/kg/injection, schedule: Q01DX009 (ip), vehicle: Klucel (hydroxypropylcellulose) (HPC)) 93 % of control; (dose: 1.6 mg/kg/injection, schedule: Q01DX009 (ip), vehicle: saline) 93 % of control; under setting [17], 100 % of control. Also, the T/C (dose: 3.2 mg/kg/injection, schedule: Q01DX009 (ip), vehicle: saline with Tween-80) was 119 % of control; the T/C (dose: 3.2 mg/kg/injection, schedule: Q01DX009 (ip), vehicle: saline) was 95 % of control; the T/C under setting [18] was 87 % of control; the T/C under setting [19] is 113 % of control; the T/C (dose: 6.3 mg/kg/injection, schedule: Q01DX009 (ip), vehicle: saline) was 102 % of control; the T/C under setting [10] is 96 % of control. Also, the T/C under setting [12] is 108 % of control.

Take `CCCCOc1ccc(OCCCCCCCCCC[N+](C)(C)C)cc1`: the T/C (dose: 1.56 mg/kg/injection, schedule: Q01DX009 (ip), vehicle: Klucel (hydroxypropylcellulose) (HPC)) was 98 % of control; the T/C under setting [17] was 96 % of control; the T/C under setting [18] was 96 % of control; the T/C under setting [10] is 93 % of control.

In the case of `CCN(CC)c1ccc(N)cc1`, the T/C reads like this: (dose: 5.0 mg/kg/injection, schedule: Q01DX009 (ip), vehicle: saline) 109 % of control; (dose: 10.0 mg/kg/injection, schedule: Q01DX009 (ip), vehicle: saline) 95 % of control; (dose: 20.0 mg/kg/injection, schedule: Q01DX009 (ip), vehicle: saline) 95 % of control.

On to `CCCCCCCCCCCCCCCCCC(=O)[O][Hg][c]1ccccc1`, for which the T/C reads like this: under setting [19], 97 % of control; under setting [12], 105 % of control.

As to `COC(=O)C1=CO[C@@H](C)[C@@H]2Cn3ccc4c5ccccc5nc-4c3C[C@H]12`, the T/C under setting [3] was 94 % of control and the T/C under setting [13] is 89 % of control.
